# Values joined by “and” are separate entries in the source; they are usually repeats but may differ in a detail not shown here. Equal entries are not always repeated.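 The compound was tested at five concentrations on cells cultured in 96-well plates, with a 48-hour exposure period. At the GI50, growth is halved. TGI: concentration producing complete growth inhibition.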
# Columns and labels:
# Experiment in all cases: NCI-60 cell line screen, 48 h
# [1] = tested on: DU-145 prostate
# [2] = tested on: EKVX NSCLC
# [3] = tested on: MDA-MB-435
# [4] = tested on: MDA-N
# [5] = tested on: NCI-H23 lung
# [6] = tested on: OVCAR-5 ovarian
# [7] = tested on: PC-3 prostate
# [8] = tested on: SK-MEL-2 melanoma
# [9] = tested on: SN12C renal
# [10] = tested on: SR leukemia
Structure (SMILES),TGI [1],TGI [2],TGI [3],TGI [4] [µM],TGI [5],TGI [6] [µM],TGI [7] [µM],TGI [8] [µM],TGI [9] [µM],TGI [10],GI50 [2],GI50 [3],GI50 [4] [µM],GI50 [6],GI50 [8],GI50 [9]
COC(=O)/C=C/[C@H]1[C@H](C)N1S(=O)(=O)c1ccc(C)cc1 (stereo partly specified),> 100 µM,> 100 µM,> 100 µM,> 100,> 100 µM,> 100,> 100,> 100,> 100,> 100 µM,,,,,,
CN1CCN2CCN(C)CCN(CC1)CC2,> 100 µM,> 100 µM,> 100 µM,> 100,> 100 µM,> 100,> 100,> 100,> 100,> 100 µM,,,,,,
COc1ccc2oc(=O)c(-c3nc4ccccc4s3)cc2c1,> 67.5 µM,> 65 µM,> 47.1 µM,> 67.2,> 63.9 µM,> 100,> 100,> 100,> 100,> 100 µM,,,,,,
COC(=O)/C=C/c1cc(OC)c2c(c1)C(C(=O)OC)C(c1ccc(O)c(OC)c1)O2 (stereo unspecified),> 100 µM and 35.7 µM,> 100 µM and 57.6 µM,4.49 µM and 1.32 µM,29.1,> 100 µM and 13 µM and 56.5 µM,> 100,> 100,> 82.2,> 100,> 25.7 µM and 3.91 µM,> 29.4 µM and 18.5 µM and 3.45 µM,1.13 µM and 0.259 µM,0.204,48.8 µM and 55.2 µM and 22.3 µM,3.16 µM and 3.87 µM and 9.94 µM,13.9 µM and 9.44 µM and 4.63 µM
Cc1nc2c(ccc3[nH]c4ccccc4c32)s1,> 100 µM,69.1 µM,64.7 µM,> 100,91.7 µM,> 100,47.9,54.7,76.9,87.8 µM,,,,,,
CCN(CC)CCCNc1c2cc(OC)ccc2nc2cccc([N+](=O)[O-])c12,0.426 µM,0.446 µM,0.229 µM,0.277,0.344 µM,0.432,0.224,0.32,0.402,0.061 µM,,,,,,
COc1ccc(-c2nc3ccccc3c(=O)[nH]2)cc1OC,> 100 µM,53.2 µM,> 100 µM,> 100,> 100 µM,> 100,> 100,> 100,> 100,> 100 µM,,,,,,
O=C(CN1CCOCC1)c1ccc2c(c1)oc(=O)n2CCN1CCCCC1,> 100 µM,> 100 µM,> 100 µM,> 100,> 100 µM,> 100,> 100,> 100,> 100,> 100 µM,,,,,,
CC(C)N=C(NC#N)NS(=O)(=O)c1cnccc1NC1CCCCCCC1,> 100 µM,> 100 µM,> 100 µM,> 100,> 100 µM,> 100,> 100,> 100,> 100,> 100 µM,,,,,,
Cc1c(OCc2cccc3ccccc23)ccc2c(=O)cc(S)oc12,> 100 µM,> 100 µM,98.6 µM,> 100,80.7 µM,> 100,> 100,50.4,> 100,62.1 µM,,,,,,
C/C(=N\Nc1nc2ccccc2[nH]1)c1ccc2ccccc2n1,5.88 µM,5.97 µM,17 µM,14.8,16.1 µM,10,5.2,7.23,7.57,0.448 µM,,,,,,
Nc1nc(=O)n(C2CC(O)C(CO)O2)c2nc(-c3ccc(-c4ccccc4)cc3)cnc12 (stereo unspecified),> 100 µM,> 100 µM,> 100 µM,> 100,> 100 µM,> 100,> 100,> 100,> 100,> 100 µM,,,,,,
CCOC1=NC(C(F)(F)F)(C(F)(F)F)N=C(/N=C(/N)N(C)C(C(C)C)P(=O)(OC(C)C)OC(C)C)O1 (stereo unspecified),> 100 µM,> 100 µM,> 100 µM,> 100,> 100 µM,> 100,> 100,> 100,> 100,> 100 µM,,,,,,
[B]C(=O)NC(CC(C)C)C(=O)NC1c2ccsc2C(=O)C1O (stereo unspecified) (tested in a mixture with another compound),> 100 µM,> 100 µM,> 100 µM,> 100,> 100 µM,> 100,> 100,> 100,> 100,> 100 µM,,,,,,
NC(=O)NC(=O)c1cccc(C(=O)NC(N)=O)n1,> 100 µM,> 100 µM,> 100 µM,> 100,> 100 µM,> 100,> 100,> 100,> 100,> 100 µM,,,,,,
C[C@H](N)C(=O)Nc1ccc(-c2nc3ccccc3s2)cc1Cl,32.1 µM,26.7 µM,28.7 µM,26.3,39.2 µM,14.9,27.3,30.5,30,13.9 µM,,,,,,
O=C(CCCN1CCC(Nc2ccc(F)cc2)(c2nnnn2C2CCCCC2)CC1)c1ccc(F)cc1,28.4 µM,35.4 µM,31.5 µM,30.7,29 µM,29.7,51.8,40.7,> 100,> 100 µM,,,,,,
O=C(O)Cc1ccc(-n2nnc3c(=O)[nH][nH]c(=O)c32)cc1,> 100 µM,> 100 µM,> 100 µM,> 100,> 100 µM,> 100,> 100,> 100,> 100,> 100 µM,,,,,,

# — PubChem BioAssay (NCI)
